Where two headings read alike, the source gives them in different places.
What was measured:
MDR1 (Pgp) = assay: in vitro; conditions: dog, MDCK-MDR1
Description: In order to evaluate potential of brain permeability, all three compounds were tested in an MDR1-MDCK permeability assay. […] Those that have a high efflux ratio are generally substrates for Pgp transporters, thereby having a higher propensity to be excluded from the brain. […] To assess directly the TP compounds’ ability to penetrate brain, mice were dosed with compound, and plasma and brains were collected after 5 and 60 min following intravenous dosing.

[1] = test system: HepG2 (human hepatocellular carcinoma) cells; assay: HepG2 cytotoxicity assay (CCK-8, 96 h); format: cell-based; conditions: mean ± SEM
Description: The HepG2 (human hepatocellular carcinoma) cells were obtained from ATCC (American Type Culture Collection) and grown in RPMI media. Cytotoxicity assay was performed in 384-well format, and 25 µL, approximately 1.6 × 10^4 cells/mL, suspension was added to clear-bottom 384-well Griener plates and incubated in 5% CO2 incubator, at 37 °C for 24 h. Once the cells adhered, 125 nL of threefold serially diluted compounds in DMSO was added. Plates were incubated for 96 h, at 37 °C, in a 5% CO2 incubator. Plates were read for viability by adding 10 µL of CCK-8 reagent (APExBIO) into each well, followed by 3 h incubation and absorbance reading at […], using an Envision plate reader. […] Puromycin was used as a positive control. All experiments had two technical replicates and three biological replicates. Appropriate statistical tests were used for evaluating significance, and mean ± SEM is represented in the tables.

[2] = test system: T. b. brucei strain Lister 427 (bloodstream form); assay: T. b. brucei growth inhibition assay (CellTiter-Glo, 48 h); format: cell-based, Trypanosoma brucei brucei
Description: The T. b. brucei strain Lister 427 (bloodstream form) parasites were continuously grown in complete HMI-9 medium supplemented with 10% Serum Plus and 10% heat-inactivated fetal bovine serum (FBS). All other parasite strains were cultured as described elsewhere.
For determination of 50% growth inhibition, all compounds were dissolved in DMSO, and 200 nL of threefold serially diluted compounds were added into solid-bottom 384-well white plates (Greiner Bio-One, Kremsmunster, Austria) by an Echo 555 acoustic liquid-handling system. Forty microliters of 10^4 cells/mL of T. b. brucei parasites was added into each well, and the plates were incubated in a 5% CO2 incubator at 37 °C for 48 h. Viability of parasites were determined by measuring intracellular ATP levels, using CellTiter-Glo (CTG) luminescent cell viability reagent (Promega, Madison, Wisconsin WI, USA). The EC50 values were determined by using GraphPad Prism software. Growth inhibition assays for all clinical isolates were carried out as described earlier. All experiments had two technical replicates and three biological replicates. Appropriate statistical tests were used for evaluating significance, and mean ± SEM is represented in the tables.

Row | SMILES | efflux ratio (MDR1 (Pgp)) | HepG2 CC50 [1] | EC50 ([2]; Lister 427 bloodstream form, mean ± SEM, read-out: T. b. brucei EC50) | EC50 ([2]; Trypanosoma brucei, read-out: T. b. brucei EC50, Lister 427 bloodstream form, 48 h, mean ± SEM)
1 | Cc1nc(C)c(C(=O)Nc2ccc(F)c(-c3nc4ncc(C(C)(C)C)cn4n3)c2)o1 [NITD689] | 0.9 |  |  | 
2 | Cc1nc(C)c(C(=O)Nc2ccc(F)c(-c3nc4ncc(-c5ccccc5)cn4n3)c2)o1 [GNF3849] | 3.2 | cytotoxic |  | 
3 | Cc1nc(C)c(C(=O)Nc2ccc(F)c(-c3nc4ncc(-c5ccccn5)cn4n3)c2)o1 [GNF6702] |  |  | 70 ± 3 nM | < 70 nM
